PMC7796031, “Studies of Coumarin Derivatives for Constitutive Androstane Receptor (CAR) Activation” (Molecules, 2020)

Columns and labels:
[1] = system: phosphoenopyruvate carboxykinse (PEPCK) mRNA expression; test: PEPCK mRNA expression induced by dexamethasone and 8-bromo-cAMP in H4IIE cells; type: cell-based, rat; details: dexamethasone (500 nM) + 8-bromo-cAMP, test compounds as printed
Method: S21 Effects of scoparone, 50 (PLH), and 6 on phosphoenopyruvate carboxykinse (PEPCK) mRNA expression induced by dexamethasone and 8-bromo-cAMP.
A quantified result of dexamethasone (500 nM) and 8-bromo-cAMP (100µM) induced PEPCK mRNA expression in the presence or absence of scoparone, 50 (PLH) and 6 at 0.78 µM was shown. Insulin (10 nM) was served as an experimental control. Quantified data was presented as mean ± S.E.M. (n = 4). **P < 0.01 and ***P < 0.001 when compared with induction control (None).
PEPCK mRNA could be induced by dexamethasone and 8-bromo-cAMP after 3hr. The presence of insulin […]
Scoparone, at 0.78 µM, can suppress PEPCK
In contrast, both 50 (PLH) and 6 could also suppress PEPCK
Cell culture: The rat H4IIE cells were cultured in Dulbecco’s Modified Eagle’sMedium (DMEM) containing 1 g/L glucose, 5% (v/v) fetal calf serum (FBS) and 1% (v/v) antibiotics (100 U/mL penicillin and 0.1 g/L streptomycin). Cultured cells were maintained at 37 ◦C in an atmosphere of 5% CO2 and 95% air.
The measurement of PEPCK gene expression: H4IIE cells were seeded into 6 cm dish and allowed for the attachment. After serum starvation overnight, cells were treated with various conditions described in the figure legend. After treatment, total RNA of each treatment was extracted using TRI-reagent according to the manufacturer’s instructions. The pelleted RNA was dissolved in distilled water, quantified with NanoDrop™ 1000 Spectrophotometer (Thermo Fisher Scientific, USA) and stored at −70 ◦C. Total RNA (1µg) was reverse transcribed to generate templates. 50 ng of cDNA was employed for further PCR. The sequences of […]
primers for β-actin: 5’-[…]- 3’ and 5’-[…]-3’ and […]
(1 picture or pasted object on this page, not shown here)

MRP2 = test: Protein expression of MRP2 (western blot); type: cell-based, human
Method: Figure 7 The protein expressions of MRP2 after 6,7-diprenoxycoumarin (50) treatment. Hep3B cell (1 × 10^6) were treated with 50 (5, 10, 20 and 40 μM) for 24 h. Treated cell lysates were prepared as described in the Methods section and the expression of MRP2 was analyzed by western blot.
1 × 10^6 cells were seeded in a 10 cm plate, incubated at 37 °C for overnight and treated with various concentrations of compounds for the indicated times. After incubation, the culture medium was removed and washed twice with 2 mL ice-cold 1× PBS. Three hundred μL of protein lysis buffer (150 mM NaCl, 50 mM Tris-HCl (pH 7.4), 1% SDS, 1% Triton X-100, 1 mM PMSF) was added into each plate, scraped with a rubber policeman, collected into a premarked microtube and the incubated in ice for 1 h, sonicated by Ultrasonic Cell Disruptor for three time at 5 s each. The cell lysated was cleared by centrifugation at 12,000× g for 15 min at 4 °C. Supernatants were transferred into a fresh marked microtube and stored at −20 °C for future use.
Protein concentration of each sample was determined using a BCA Protein Assay Kit (Pirece®, Thermo Scientific). Different percentages of SDS-PAGE gels were prepared according to the molecular size of proteins of interest. After complete polymerization of stacking gels, each sample with equal amount of total protein was separated in polyacrylamide gels (stacking gel: 50 v, 60 min; separating gel: 100 v, 60 min). After separating, wet-transfer method was utilized to transfer proteins onto the PVDF membrane. The gels were assembled in the transfer sandwich and put in a transfer tank filled with transfer buffer (25 mM glycine, 0.15% ethanolamine, 20% methanol). The electro-transfer was performed at the voltage of 100 volt for 80 min at 4 °C. After transfer, PVDF-membrane was blocked with 5% BSA in 1× TBS-Tween at room temperature for 1 h. Membrane was washed with 10 mL 1× TBS-Tween three times and incubated with primary antibodies overnight at 4 °C with gentle agitation. […] The emitted fluorescence from the membrane was caught on a LAS-4000 biomolecule imager (FUJI.).

SMILES | suppression of PEPCK mRNA induction [1] | protein expression of MRP2 (CAR downstream gene) (MRP2; Figure 2, after scoparone or CITCO treatment) | protein expression level of MRP2 (MRP2; Hep3B, 5, 10, 20 and 40 μM, 24 h)
COc1cc2ccc(=O)oc2cc1OC [Compound 39, scoparone] | level similar to insulin | upregulated | 
CC(C)=CCOc1cc2ccc(=O)oc2cc1OCC=C(C)C [Compound 50, 6,7-diprenoxycoumarin] | less potent |  | enhanced
